Source: ChEMBL document CHEMBL1129969 (J Med Chem, 1997)

Legend:
Oxytocin receptor = target: T1, Oxytocin receptor (Rattus norvegicus, UniProt P70536); experiment: Binding affinity against Oxytocin receptor was determined in rat uterine membrane using radioligand [3H]oxytocin; type: cell membranes
T1 sequence (P70536 whole entry): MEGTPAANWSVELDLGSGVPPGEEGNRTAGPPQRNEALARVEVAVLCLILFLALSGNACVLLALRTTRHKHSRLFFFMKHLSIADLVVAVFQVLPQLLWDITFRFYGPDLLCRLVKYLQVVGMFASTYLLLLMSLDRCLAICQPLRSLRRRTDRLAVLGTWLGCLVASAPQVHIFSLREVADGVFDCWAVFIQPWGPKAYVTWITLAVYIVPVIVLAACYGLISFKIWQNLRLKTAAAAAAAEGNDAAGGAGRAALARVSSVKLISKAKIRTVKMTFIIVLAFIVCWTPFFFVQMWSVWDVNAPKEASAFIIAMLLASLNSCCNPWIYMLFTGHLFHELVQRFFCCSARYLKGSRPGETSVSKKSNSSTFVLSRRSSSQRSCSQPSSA

Rattus norvegicus [1] = species on record: Rattus norvegicus; experiment: Biological activity was determined by uterotonic in vitro test in magnesium-free solution; type: functional
Rattus norvegicus [2] = experiment: Biological activity was determined by uterotonic in vivo test using urethane-anesthetized rats (protracted action); type: functional
Rattus norvegicus [3] = species on record: Rattus norvegicus; experiment: Biological activity was determined by pressor test using pithed rat preparations (protracted action); type: functional
Rattus norvegicus [4] = species on record: Rattus norvegicus; experiment: Biological activity was determined by pressor test using pithed rat preparations; type: functional
Rattus norvegicus [5] = experiment: Biological activity was determined by uterotonic in vivo test using urethane-anesthetized rats; type: functional

## CC[C@H](C)[C@@H]1NC(=O)[C@H](Cc2ccc(O)cc2)NC(=O)CCSSSC[C@H](C(=O)N2CCC[C@H]2C(=O)N[C@@H](CC(C)C)C(=O)NCC(N)=O)NC(=O)[C@H](CC(N)=O)NC(=O)[C@H](CCC(N)=O)NC1=O [DEAMINOOXYTOCIN TRISULFIDE]
Oxytocin receptor
  Ki: 3 nM
Rattus norvegicus [1]
  Activity: 32.7 IU mg-1
Rattus norvegicus [2]
  Activity: 135 IU mg-1
Rattus norvegicus [3]
  Activity: 0.6 IU mg-1

## CC[C@H](C)[C@@H]1NC(=O)[C@H](Cc2ccc(O)cc2)NC(=O)CCSSC[C@@H](C(=O)N2CCC[C@H]2C(=O)N[C@@H](CC(C)C)C(=O)NCC(N)=O)NC(=O)[C@H](CC(N)=O)NC(=O)[C@H](CCC(N)=O)NC1=O [DEMOXYTOCIN]
Oxytocin receptor
  Ki: 0.9 nM
Rattus norvegicus [4]
  Activity: 5 IU mg-1
Rattus norvegicus [1]
  Activity: 576 IU mg-1
Rattus norvegicus [2]
  Activity: 541 IU mg-1

## CC[C@H](C)[C@@H]1NC(=O)[C@H](Cc2ccc(O)cc2)NC(=O)[C@@H](N)CSSSC[C@@H](C(=O)N2CCC[C@H]2C(=O)N[C@@H](CC(C)C)C(=O)NCC(N)=O)NC(=O)[C@H](CC(N)=O)NC(=O)[C@H](CCC(N)=O)NC1=O [OXYTOCIN TRISULFIDE]
Oxytocin receptor
  Ki: 6 nM

## CC[C@H](C)[C@@H]1NC(=O)[C@H](Cc2ccc(O)cc2)NC(=O)[C@@H](N)CSSC[C@@H](C(=O)N2CCC[C@H]2C(=O)N[C@@H](CC(C)C)C(=O)NCC(N)=O)NC(=O)[C@H](CC(N)=O)NC(=O)[C@H](CCC(N)=O)NC1=O [OXYTOCIN]
Rattus norvegicus [4]
  Activity: 5 IU mg-1
Rattus norvegicus [1]
  Activity: 510 IU mg-1
Rattus norvegicus [5]
  Activity: 450 IU mg-1
